Article PMC4352033, “SD-208, a Novel Protein Kinase D Inhibitor, Blocks Prostate Cancer Cell Proliferation and Tumor Growth In Vivo by Inducing G2/M Cell Cycle Arrest” (PLoS ONE, 2015)

How the values were obtained:
Assay type in all cases: biochemical
PKCδ = target: T1, PKCδ (Homo sapiens, UniProt Q05655); test: in vitro radiometric PKC kinase assay
T1 construct: gene PRKCD; recombinant PKCδ

PKCα = target: T2, PKCα (Homo sapiens, UniProt P17252)
T2 construct: gene PRKCA; recombinant PKCα

protein kinase D1 (PKD1) = target: T3, protein kinase D1 (PKD1) (Homo sapiens, UniProt Q15139); test: in vitro radiometric kinase assay, 10-point curve; Lineweaver-Burk
T3 construct: gene PRKD1; GST-tagged recombinant human PKD1
T3 sequence (Q15139 1-912): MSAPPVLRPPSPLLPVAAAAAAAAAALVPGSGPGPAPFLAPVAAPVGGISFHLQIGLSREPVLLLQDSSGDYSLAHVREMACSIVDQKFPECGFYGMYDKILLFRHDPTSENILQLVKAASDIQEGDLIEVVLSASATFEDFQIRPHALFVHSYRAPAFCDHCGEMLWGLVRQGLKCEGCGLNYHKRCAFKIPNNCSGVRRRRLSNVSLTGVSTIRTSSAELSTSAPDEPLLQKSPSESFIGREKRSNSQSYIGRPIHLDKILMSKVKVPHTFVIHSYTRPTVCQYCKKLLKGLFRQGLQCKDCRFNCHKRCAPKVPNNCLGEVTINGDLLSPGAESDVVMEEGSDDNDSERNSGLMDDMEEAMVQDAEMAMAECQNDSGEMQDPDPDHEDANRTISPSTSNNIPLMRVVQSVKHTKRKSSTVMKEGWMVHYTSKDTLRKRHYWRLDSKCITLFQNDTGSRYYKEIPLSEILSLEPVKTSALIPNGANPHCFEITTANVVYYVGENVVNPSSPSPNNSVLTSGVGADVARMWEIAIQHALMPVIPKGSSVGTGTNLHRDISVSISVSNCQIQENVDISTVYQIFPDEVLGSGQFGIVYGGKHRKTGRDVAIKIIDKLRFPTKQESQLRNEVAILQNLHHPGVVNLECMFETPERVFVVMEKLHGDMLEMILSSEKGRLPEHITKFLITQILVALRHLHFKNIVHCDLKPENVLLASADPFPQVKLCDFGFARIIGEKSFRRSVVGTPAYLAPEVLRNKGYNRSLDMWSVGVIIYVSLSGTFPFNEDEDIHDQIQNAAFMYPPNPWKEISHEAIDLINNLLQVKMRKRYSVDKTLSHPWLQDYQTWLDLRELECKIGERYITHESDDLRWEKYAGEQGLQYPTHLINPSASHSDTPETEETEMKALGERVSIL

PKD2 = target: T4, PKD2 (Homo sapiens, UniProt Q9BZL6); test: in vitro radiometric kinase assay, 10-point curve
T4 construct: gene PRKD2; recombinant human PKD2
T4 sequence (Q9BZL6 1-878): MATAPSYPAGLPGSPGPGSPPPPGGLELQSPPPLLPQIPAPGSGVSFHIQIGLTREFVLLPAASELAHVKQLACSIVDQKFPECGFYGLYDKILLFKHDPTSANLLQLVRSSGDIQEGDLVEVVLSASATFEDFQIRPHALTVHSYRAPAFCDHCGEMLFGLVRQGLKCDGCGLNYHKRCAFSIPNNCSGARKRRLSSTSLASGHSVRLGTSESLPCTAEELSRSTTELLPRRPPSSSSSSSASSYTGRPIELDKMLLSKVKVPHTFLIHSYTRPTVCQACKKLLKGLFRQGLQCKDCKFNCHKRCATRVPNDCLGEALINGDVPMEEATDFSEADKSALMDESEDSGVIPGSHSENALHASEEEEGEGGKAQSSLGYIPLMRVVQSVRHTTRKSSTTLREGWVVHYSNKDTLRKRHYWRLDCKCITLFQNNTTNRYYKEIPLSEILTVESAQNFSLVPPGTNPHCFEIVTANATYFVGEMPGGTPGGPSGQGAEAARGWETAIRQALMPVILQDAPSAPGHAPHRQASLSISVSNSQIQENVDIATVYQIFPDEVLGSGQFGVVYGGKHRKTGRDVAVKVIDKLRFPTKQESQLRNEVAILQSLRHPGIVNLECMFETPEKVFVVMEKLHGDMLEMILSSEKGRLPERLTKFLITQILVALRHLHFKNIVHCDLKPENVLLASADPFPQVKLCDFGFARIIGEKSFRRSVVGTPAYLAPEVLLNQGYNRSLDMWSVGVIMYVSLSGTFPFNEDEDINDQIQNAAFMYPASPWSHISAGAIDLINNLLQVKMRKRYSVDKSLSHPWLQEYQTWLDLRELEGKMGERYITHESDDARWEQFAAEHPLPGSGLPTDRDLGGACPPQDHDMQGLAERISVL

PKD3 = target: T5, PKD3 (Homo sapiens, UniProt O94806); test: in vitro radiometric kinase assay, 10-point curve
T5 construct: gene PRKD3; recombinant human PKD3
T5 sequence (O94806 1-890): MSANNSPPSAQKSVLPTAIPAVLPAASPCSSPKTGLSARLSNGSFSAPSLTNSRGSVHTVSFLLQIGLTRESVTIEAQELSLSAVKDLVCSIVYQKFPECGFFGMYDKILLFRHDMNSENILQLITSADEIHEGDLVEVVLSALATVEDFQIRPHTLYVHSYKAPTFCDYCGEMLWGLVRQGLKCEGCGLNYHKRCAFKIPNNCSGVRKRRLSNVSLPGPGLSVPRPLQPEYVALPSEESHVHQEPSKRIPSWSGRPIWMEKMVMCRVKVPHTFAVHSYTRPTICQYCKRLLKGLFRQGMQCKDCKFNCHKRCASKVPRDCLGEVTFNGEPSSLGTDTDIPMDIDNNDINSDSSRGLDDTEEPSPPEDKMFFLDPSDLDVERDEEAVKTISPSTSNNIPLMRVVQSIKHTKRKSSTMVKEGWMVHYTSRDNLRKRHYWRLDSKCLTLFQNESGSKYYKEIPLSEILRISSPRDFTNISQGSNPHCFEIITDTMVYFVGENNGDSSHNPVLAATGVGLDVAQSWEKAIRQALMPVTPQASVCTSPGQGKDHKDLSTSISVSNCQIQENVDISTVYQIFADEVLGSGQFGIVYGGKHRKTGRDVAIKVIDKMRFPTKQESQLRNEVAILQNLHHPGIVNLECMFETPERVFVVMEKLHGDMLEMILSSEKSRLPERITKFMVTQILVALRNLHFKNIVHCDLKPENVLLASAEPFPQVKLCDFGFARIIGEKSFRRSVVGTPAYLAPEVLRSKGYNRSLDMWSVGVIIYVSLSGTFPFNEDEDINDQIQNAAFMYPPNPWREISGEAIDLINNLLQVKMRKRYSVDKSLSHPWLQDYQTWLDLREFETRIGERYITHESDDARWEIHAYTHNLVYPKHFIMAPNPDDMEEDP

T1 sequence (Q05655 whole entry): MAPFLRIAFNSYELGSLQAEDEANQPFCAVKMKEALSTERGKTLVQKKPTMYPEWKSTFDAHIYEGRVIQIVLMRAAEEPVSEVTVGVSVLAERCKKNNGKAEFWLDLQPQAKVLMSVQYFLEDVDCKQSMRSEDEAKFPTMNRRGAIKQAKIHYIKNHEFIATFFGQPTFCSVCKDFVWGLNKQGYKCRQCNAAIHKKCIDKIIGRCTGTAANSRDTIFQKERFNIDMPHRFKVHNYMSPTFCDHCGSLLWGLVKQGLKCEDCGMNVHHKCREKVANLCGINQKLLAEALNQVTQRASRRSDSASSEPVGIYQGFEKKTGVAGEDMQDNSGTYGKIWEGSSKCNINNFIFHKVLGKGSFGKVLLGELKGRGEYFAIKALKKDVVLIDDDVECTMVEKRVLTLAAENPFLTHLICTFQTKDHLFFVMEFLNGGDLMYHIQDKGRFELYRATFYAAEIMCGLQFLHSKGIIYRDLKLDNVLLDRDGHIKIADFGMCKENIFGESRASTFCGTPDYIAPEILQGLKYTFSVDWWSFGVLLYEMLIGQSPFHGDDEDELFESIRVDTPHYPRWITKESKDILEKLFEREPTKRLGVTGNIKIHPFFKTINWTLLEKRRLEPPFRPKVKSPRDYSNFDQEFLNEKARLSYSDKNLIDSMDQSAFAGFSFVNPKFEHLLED

Structure (SMILES) | in vitro radiometric PKC kinase assay (PKCδ) | in vitro radiometric PKC kinase assay (PKCα) | IC50 (protein kinase D1 (PKD1)) [nM] | IC50 (PKD2) [nM] | IC50 (PKD3) [nM]
CN(C)CCCn1cc(C2=C(c3c[nH]c4ccccc34)C(=O)NC2=O)c2ccccc21 [GF109203X] | GF109203X was tested as a positive control and it potently and concentration-dependently inhibited PKCα and PKCδ | GF109203X was tested as a positive control and it potently and concentration-dependently inhibited PKCα and PKCδ | – | – | –
Fc1ccc(Cl)cc1-c1nc(Nc2ccncc2)c2nccnc2n1 [SD-208] | – | – | 107 | 93.5 | 105
